This note sets out measurements from patent US10532028B2, “Method to improve characteristics of spray dried powders and granulated materials, and the products thereby produced” (ISP INVESTMENTS LLC, priority 2005, dated 2020).

Data set [1] in a line: Crystallinity by (modulated) differential scanning calorimetry. The following applies: MDSC, heat-only conditions, aluminum hermetic pans. It is filed as physicochemical. As for the experimental part: • 1. 1 part Carbamazepine (CBZ) was spray dried with 1 part polyvinylpyrrolidone (PVP) (Plasdone® K-29/32, International Specialty Products) and 1 part polyvinylpyrrolidone-co-vinyl acetate (PVP-VA) (Plasdone® S-630, International Specialty Products) from solvent and solvent/non-solvent solutions at 10% solids by weight. Solvent was dichloromethane (20%), non-solvent was acetone (80%). • 2. Spray drying was conducted on an SD-Micro® (Niro, Inc.) spray dryer under identical experimental conditions other than solvent composition. • 3. Results: • a. […] CBZ from solvent/non-solvent solution • 1) Particle morphology: spherical as shown in FIG. 2B. • 2) Particle size (from optical microscopy): 3 μm-5 μm • 3) Residual solvent immediately after spray drying: 2.0% • 4) Bulk density: 0.057 g/mL • 5) Density after 1250 taps: 0.18 g/mL • 6) Spherical morphology was unexpected, based on previous examples, expected particles to be dimpled, raisin-like, or folded.
• The two solutions were spray dried under identical conditions on an SD-Micro® (Niro, Inc.) spray dryer to yield spray dried powders. • 2. The two compositions were analyzed for EFV crystallinity using differential scanning calorimetry. Both powders were amorphous, as indicated by the absence of an EFV melt endotherm (FIG. 5). • 3. […]
(In general: Differential scanning calorimetry records heat flow against a reference as temperature is scanned.)

Data set [2] can be described thus: CoQ10 USP dissolution, apparatus II (paddles). It is filed as physicochemical. The following applies: 37° C. An excerpt:
• 1. Coenzyme Q10 (CoQ10) was spray dried with polyvinylpyrrolidone (PVP) (Plasdone® K-29/32, International Specialty Products) in the ratio 1 CoQ10:3 PVP at 20% total solids. Two spray dried powders were produced, one from 100% dichloromethane (DCM) and the other from a blend of 80% DCM, 20% acetone. CoQ10 is soluble in both DCM and acetone, while PVP is only soluble in DCM. All other spray drying conditions remained the same. • 2. Sample analysis included USP dissolution using apparatus II (paddles). All samples were hand-filled into size 1 gelatin capsules. The bath temperature was 37° C. with a paddle speed of 50 rpm for the first 60 minutes and then 200 rpm for an additional 15 minutes. The dissolution media contained 2% Cremophor® EL (BASF Corp.), and 4% Acconon® MC8 (Abitec Corp.). […] It is surprising that the time for 50% CoQ10 dissolution (t50%) was shortened from 18 minutes (100% solvent) to 5 minutes (solvent/non-solvent blend). Similarly, the time for 80% CoQ10 dissolution (t80%) was shortened from 68 minutes to 12 minutes by the switch from 100% solvent to the solvent/non-solvent blend. • 4. […] Other advantages of the solvent/non-solvent blend approach include lower residual solvent content and higher density.

Setting [3] is: Table 1, 75 minutes test, 2% Cremophor EL + 4% Acconon MC8.

In turn, `COC1=C(OC)C(=O)C(C/C=C(\C)CC/C=C(\C)CC/C=C(\C)CC/C=C(\C)CC/C=C(\C)CC/C=C(\C)CC/C=C(\C)CC/C=C(\C)CC/C=C(\C)CCC=C(C)C)=C(C)C1=O` [CoQ10 (as received), Coenzyme Q10] had a crystallinity in data set [1] of 100%. Moreover, the “max. CoQ10 release” value in data set [2] (50 rpm for 60 min then 200 rpm for 15 min, 2% Cremophor EL + 4% Acconon MC8, size 1 gelatin capsules) was 4.3%. In data set [2] (setting [3]), the “T80% (time for 80% CoQ10 dissolution)” value is on record as “not attained” and the “t50% (time for 50% CoQ10 dissolution)” value is listed as “not attained”.
